The target in test [1] is human CB1 receptor (Homo sapiens, UniProt P21554). Nature of the test: AequoScreen CB1 assay (intracellular Ca2+ release, CHO-K1 cells, apoaequorin/Gα16). To be noted: for Emax: CHO-K1, read-out: Efficacy (% of JWH-018) Emax; for Efficacy (Emax) Mean Diff: Brown-Forsythe and Welch ANOVA; for fold difference of each other (potency): brominated SCRAs with pent-4-enyl, butyl and pentyl tails; for fold less potent than the butyl (ADB-5′Br-BUTINACA): brominated ADB SCRAs with different tails; for fold weaker in potency than JWH-018: EC50 ratio vs JWH-018.
Chain of human CB1 receptor (P21554 whole entry): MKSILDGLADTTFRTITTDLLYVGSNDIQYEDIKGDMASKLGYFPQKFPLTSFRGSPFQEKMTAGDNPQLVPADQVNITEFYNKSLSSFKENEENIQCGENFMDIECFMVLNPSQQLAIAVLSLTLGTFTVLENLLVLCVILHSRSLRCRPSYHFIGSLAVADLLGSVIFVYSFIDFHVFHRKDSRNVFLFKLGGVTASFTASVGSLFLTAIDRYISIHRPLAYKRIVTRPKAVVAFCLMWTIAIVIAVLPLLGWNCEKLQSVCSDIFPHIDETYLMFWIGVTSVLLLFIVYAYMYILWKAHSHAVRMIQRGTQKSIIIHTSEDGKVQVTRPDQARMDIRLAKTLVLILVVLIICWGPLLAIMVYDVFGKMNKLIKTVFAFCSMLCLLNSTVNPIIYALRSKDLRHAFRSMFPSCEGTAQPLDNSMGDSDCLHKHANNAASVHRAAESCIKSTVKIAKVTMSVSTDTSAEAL

For test [2], the target named is CB1 receptor. The following applies: β-arrestin 2 recruitment; ref Deventer et al. [2023b]; cited from earlier work.
The target in test [3] is CB1 receptor. The arrangement: method as in Deventer et al. [2023b]. To be noted: AequoScreen / Ca2+ release assay; ref Deventer et al. [2023b]; cited from earlier work.
The mark [4] stands for this setting: Compound 1 vs Compound 2 = ADB-5’Br-BUTINACA
The mark [5] stands for this setting: Compound 1 vs Compound 2 = MMB-5’Cl-BUTINACA
The mark [6] stands for this setting: Compound 1 vs Compound 2 = MMB-5’F-BUTINACA
Setting [7] is: Compound 1 vs Compound 2 = MDMB-4en-5’Br-PINACA (also printed MDMB-5’Br-4en-PINACA).
Where [8] appears, read: Compound 1 vs Compound 2 = MDMB-5’Cl-BUTINACA
Where [9] appears, read: Compound 1 vs Compound 2 = MDMB-5’F-BUTINACA
The mark [10] stands for this setting: Compound 1 vs Compound 2 = MDMB-BUTINACA
Setting [11] is: Compound 1 vs Compound 2 = AB-5’Cl-BUTINACA
Setting [12] is: Compound 1 vs Compound 2 = ADB-5’F-BUTINACA
Setting [13] is: Compound 1 vs Compound 2 = ADB-5’Cl-BUTINACA
[14] abbreviates: Compound 1 vs Compound 2 = MDMB-INACA.
Setting [15] is: Compound 1 vs Compound 2 = ADB-4en-5’Br-PINACA.
The mark [16] stands for this setting: Compound 1 vs Compound 2 = ADB-5’Br-PINACA.

Read-outs that look alike come from different tables or passages of the source.

Regarding `CCCCn1nc(C(=O)NC(C(=O)OC)C(C)C)c2cc(Br)ccc21` (centres unmarked) [MMB-5′Br-BUTINACA], the EC50 in test [1] was 259 nM. For the same compound, the maximal effect (Emax) in test [1] was found to be 105%. Further, the “Efficacy (Emax) Mean Diff” value in test [1] (setting [4]) is reported as -4.38; in test [1] (setting [5]) it was -3.81; in test [1] (setting [6]), -1.32.

Turning to `CCCCn1nc(C(=O)NC(C(=O)OC)C(C)(C)C)c2cc(Br)ccc21` (centres unmarked) [MDMB-5′Br-BUTINACA], in test [1], the 50% effective concentration (EC50) stood at 42.4 nM. The Emax in test [1] amounted to 114%. For the same compound, the “Efficacy (Emax) Mean Diff” value was -6.38 in test [1] (setting [7]), 3.79 in test [1] (setting [8]), 2.52 in test [1] (setting [9]) and -7.53 in test [1] (setting [10]). The “fold less potent than MDMB-BUTINACA” value in test [1] (EC50 ratio vs non-halogenated analog MDMB-BUTINACA) is reported as 4.8 fold. For the same compound, the “fold difference of each other (potency)” value in test [1] is recorded as not above 1.4 fold.

With `CCCCn1nc(C(=O)NC(C(N)=O)C(C)C)c2cc(F)ccc21` (centres unmarked) [AB-5′F-BUTINACA], the EC50 in test [1] turned out to be 18.7 nM. In addition, the Emax in test [1] stood at 107%. The “Efficacy (Emax) Mean Diff” value in test [1] (setting [11]) is -4.99; in test [1] (setting [12]), -6.01; in test [1] (setting [9]), -4.12; in test [1] (setting [6]), 0.24.

Take `C=CCCCn1nc(C(=O)NC(C(N)=O)C(C)(C)C)c2cc(Br)ccc21` (centres unmarked) [ADB-4en-5′Br-PINACA, N-(1-amino-3,3-dimethyl-1-oxobutan-2-yl)−5-bromo-1-(pent-4-en-1-yl)−1H-indazole-3-carboxamide]: in test [1], a half-maximal effect (EC50) was put at 14.2 nM, the maximum response (Emax) came out at 111% and the “fold difference of each other (potency)” value is not above 1.4 fold. Further, in test [1] (setting [7]), the “Efficacy (Emax) Mean Diff” value is listed as -8.94.

In the case of `CCCCn1nc(C(=O)NC(C(=O)OC)C(C)(C)C)c2cc(Cl)ccc21` (centres unmarked) [MDMB-5′Cl-BUTINACA], in test [1], the EC50 was found to be 10.6 nM and the maximal response (Emax) stood at 110%. Further, the “Efficacy (Emax) Mean Diff” value in test [1] (setting [10]) is recorded as -11.32.

Take `CCCCn1nc(C(=O)NC(C(=O)OC)C(C)C)c2cc(F)ccc21` (centres unmarked) [MMB-5′F-BUTINACA]: the EC50 in test [1] is 26.4 nM. The Emax in test [1] was 107%. In addition, the “Efficacy (Emax) Mean Diff” value in test [1] (setting [12]) is reported as -6.25; in test [1] (setting [9]), -4.36; in test [1] (setting [5]) it was -2.49.

As to `CCCCn1nc(C(=O)NC(C(=O)OC)C(C)C)c2cc(Cl)ccc21` (centres unmarked) [MMB-5′Cl-BUTINACA], in test [1], the EC50 came out at 148 nM and the Emax turned out to be 109%. Also, the “Efficacy (Emax) Mean Diff” value in test [1] (setting [13]) is on record as -3.40. In addition, the “Efficacy (Emax) Mean Diff” value in test [1] (setting [8]) is given as -0.60.

Compound `CCCCn1nc(C(=O)NC(C(=O)OC)C(C)(C)C)c2cc(F)ccc21` (centres unmarked) [MDMB-5′F-BUTINACA] had an EC50 in test [1] of 5.75 nM. Besides, the Emax in test [1] amounted to 111%. Further, the “Efficacy (Emax) Mean Diff” value in test [1] (setting [8]) is given as 1.27; in test [1] (setting [10]), -10.05.

For `CCCCCCCCCCn1nc(C(=O)NC(C(N)=O)C(C)(C)C)c2cc(Br)ccc21` (centres unmarked) [N-(1-amino-3,3-dimethyl-1-oxobutan-2-yl)−5-bromo-1-decyl-1H-indazole-3-carboxamide], the “Potency (EC50, nM)” value in test [1] (three-parameter logistic fit, n ≥ 3, triplicate, racemic standards) is on record as “not even reaching saturation”.

With `CCCCn1nc(C(=O)NC(C(N)=O)C(C)(C)C)c2cc(Cl)ccc21` (centres unmarked) [ADB-5′Cl-BUTINACA], in test [1], the EC50 amounted to 30.1 nM and the Emax was determined as 113%. For the same compound, the “Efficacy (Emax) Mean Diff” value in test [1] (Compound 1 vs Compound 2 = ADB-BUTINACA) was -12.82. In addition, the “Efficacy (Emax) Mean Diff” value in test [1] (setting [8]) was found to be 2.80. Besides, the “fold less potent than ADB-BUTINACA” value in test [1] (EC50 ratio vs non-halogenated analog ADB-BUTINACA) turned out to be 1.4 fold.

Take `COC(=O)C(NC(=O)c1n[nH]c2ccccc12)C(C)(C)C` (centres unmarked) [MDMB-INACA, reference compound]: in test [1], the EC50 stood at 3690 nM and the Emax came out at 112%.

For the compound `CCCCn1nc(C(=O)NC(C(N)=O)C(C)C)c2cc(Cl)ccc21` (centres unmarked) [AB-5′Cl-BUTINACA], in test [1], the response was half-maximal at 57.7 nM (EC50). Besides, the Emax in test [1] turned out to be 112%. Moreover, the “Efficacy (Emax) Mean Diff” value is -0.67 in test [1] (setting [13]), 2.14 in test [1] (setting [8]) and 2.74 in test [1] (setting [5]).

With `COC(=O)C(NC(=O)c1n[nH]c2ccc(C)cc12)C(C)(C)C` (centres unmarked) [MDMB-5′Me-INACA, methyl 3,3-dimethyl-2-[(5-methyl-1H-indazole-3-carbonyl)amino]butanoate], in test [1], a half-maximal effect (EC50) was put at 1370 nM and the Emax was determined as 113%. Moreover, the “Efficacy (Emax) Mean Diff” value in test [1] (Compound 1 vs Compound 2 = MDMB-5’Br-INACA) was determined as 3.46. Besides, the “Efficacy (Emax) Mean Diff” value in test [1] (setting [14]) was 1.15. Also, in test [1] (EC50 ratio, tail-less SCRAs), the “fold more potent than MDMB-5′Br-INACA” value turned out to be 1.6 fold and the “fold more potent than MDMB-INACA” value was 2.7 fold.

In the case of `CC(C)(C)C(NC(=O)c1nn(Cc2ccc(F)cc2)c2ccc(Br)cc12)C(N)=O` (centres unmarked) [ADB-5′Br-FUBINACA], the EC50 in test [1] amounted to 42.1 nM. In addition, the Emax in test [1] was found to be 112%. In addition, the “Efficacy (Emax) Mean Diff” value in test [1] (setting [15]) is 1.04; in test [1] (setting [16]), 4.13. Further, the “fold less potent than the butyl (ADB-5′Br-BUTINACA)” value in test [1] (EC50 ratio) is listed as 2.3 fold.

As for `CC(C)(C)C(NC(=O)c1n[nH]c2ccc(Br)cc12)C(N)=O` (centres unmarked) [ADB-5′Br-INACA, N-[1-amino-3,3-dimethyl-1-oxobutan-2-yl]−5-bromo-1H-indazole-3-carboxamide], the EC50 in test [1] came out at 2290 nM. In addition, the Emax in test [1] worked out at 111%. Also, the “Efficacy (Emax) Mean Diff” value in test [1] (setting [15]) is reported as -0.21; in test [1] (setting [4]) it was 1.04; in test [1] (Compound 1 vs Compound 2 = ADB-5’Br-FUBINACA) it was -1.25; in test [1] (setting [16]) it was 2.88. Besides, the “fold weaker in potency than JWH-018” value in test [1] is listed as 100 fold. Also, in test [1] (EC50 ratio), the “fold less potent than the butyl (ADB-5′Br-BUTINACA)” value amounted to 127 fold.

As for `CCCCCn1nc(C(=O)NC(C(N)=O)C(C)(C)C)c2cc(Br)ccc21` (centres unmarked) [ADB-5′Br-PINACA, N-(1-amino-3,3-dimethyl-1-oxobutan-2-yl)−5-bromo-1-pentyl-1H-indazole-3-carboxamide], in test [1], the EC50 was determined as 19.8 nM, the maximal response (Emax) turned out to be 108% and the “fold difference of each other (potency)” value is not above 1.4 fold. The “Efficacy (Emax) Mean Diff” value in test [1] (setting [15]) is -3.10.

For the compound `CCCCn1nc(C(=O)NC(C(N)=O)C(C)C)c2cc(Br)ccc21` (centres unmarked) [AB-5′Br-BUTINACA], a half-maximal response in test [1] (EC50) required 44.6 nM. The Emax in test [1] was determined as 115%. In addition, the “Efficacy (Emax) Mean Diff” value worked out at 2.92 in test [1] (setting [11]); 7.90 in test [1] (Compound 1 vs Compound 2 = AB-5’F-BUTINACA); 5.08 in test [1] (setting [4]); 1.26 in test [1] (Compound 1 vs Compound 2 = MDMB-5’Br-BUTINACA); 9.47 in test [1] (Compound 1 vs Compound 2 = MMB-5’Br-BUTINACA).

In the case of `C=CCCCn1nc(C(=O)NC(C(=O)OC)C(C)(C)C)c2ccccc21` (centres unmarked) [MDMB-4en-PINACA, reference compound], in test [1], the EC50 came to 17.9 nM and the Emax turned out to be 109%.

`COC(=O)C(NC(=O)c1n[nH]c2ccc(Br)cc12)C(C)(C)C` (centres unmarked) [MDMB-5′Br-INACA, methyl 2-[5-bromo-1H-indazole-3-carboxamido]−3,3-dimethylbutanoate]: in test [1], the EC50 was 2200 nM, the Emax was determined as 110% and the “fold weaker in potency than JWH-018” value turned out to be 100 fold. Also, in test [1] (setting [14]), the “Efficacy (Emax) Mean Diff” value is -2.31. Moreover, in test [1] (EC50 ratio, tail-less SCRAs), the “fold more potent than MDMB-INACA” value was found to be 1.7 fold.

In the case of `CCCCn1nc(C(=O)NC(C(=O)OC)C(C)(C)C)c2ccccc21` (centres unmarked) [MDMB-BUTINACA, reference compound], in test [1], the EC50 came to 8.9 nM and the Emax is 121%.

`C=CCCCn1nc(C(=O)NC(C(=O)OC)C(C)(C)C)c2cc(Br)ccc21` (centres unmarked) [MDMB-4en-5′Br-PINACA, methyl 2-{[5-bromo-1-(pent-4-en-1-yl)−1H-indazole-3-carbonyl]amino}−3,3-dimethylbutanoate]: in test [1], the response was half-maximal at 44.6 nM (EC50), the Emax was 120% and the “fold difference of each other (potency)” value is given as not above 1.4 fold. Moreover, the “Efficacy (Emax) Mean Diff” value in test [1] (Compound 1 vs Compound 2 = MDMB-4en-PINACA) amounted to 11.19. For the same compound, in test [1] (EC50 ratio vs non-halogenated analog MDMB-4en-PINACA), the “fold less potent than MDMB-4en-PINACA” value is listed as 2.5 fold.

Regarding `CC(C)(C)[C@H](NC(=O)c1n[nH]c2ccccc12)C(N)=O` [ADB-INACA, reference compound], the concentration for a half-maximal effect (EC50) result in test [2] and in test [3] was “did not reach saturation” each time.

The values are drawn from paper PMC12367851, “In vitro CB1 receptor activity of halogenated indazole synthetic cannabinoid receptor agonists” (Archives of Toxicology, 2025).
